Laboratory results taken from patent publication US20080226565A1, “Anticariogenic Proteins & Peptides & Saccharides” (priority 2004, published 2008).

How the values were obtained:
[1] = test system: microaerophilic bacteria isolated from the oral cavity; experiment: Susceptibility (MIC), agar dilution, microaerophilic bacteria; type: cell-based
Method: The investigations included more than hundred strains isolated from the oral cavity: : anaerobes, microaerophilic bacteria, aerobes, Streptococcus spp. and yeast like fungi. The microorganisms were isolated from saliva, mucosal membrane, gingival pockets and caries decay. The susceptibility (MIC) of bacteria and yeastlike fungi were determined by means of plate dilution technique in agar.
The investigated samples were dissolved in sterile distilled water (immediately before the experiment) to obtain the following concentrations: 3.5, 1.7, 0.8, 0.4 and 0.2 mg/ml and were added into appropriate agar. The plates were inoculated using a Steers multipoint inoculator. Inoculum contained 10^6 CFU/spot. […]
Anaerobes. The susceptibility of bacteria was determined by means of the agar dilution methods with Brucella agar supplemented with 5% defibrinated sheep's blood, menadione and hemin. […] The susceptibility of bacteria was determined by means of the agar dilution methods with Brucella agar supplemented with 5% sheep's blood. […] The susceptibility of bacteria was determined by means of the agar dilution methods with Mueller-Hinton agar supplemented with 5% sheep's blood. […] The susceptibility to investigated samples was determined by means of the plate dilution technique in Mueller-Hinton agar. […]

[2] = In-vivo: tooth samples treated with peptide, 12 hours in the oral cavity, then acetic acid, Knoop hardness; set-up: species or system human; settings: for B: Average initial hardness of the tooth surface (st. dev.): before treatment
Method: In another experiment, 126 sterilized tooth samples where treated with a variety of peptides, fixed to the device and positioned after the lower jaw in the oral cavity of 5 volunteers. The device remained in the oral cavity for a period of 12 hours after which the teeth where removed, cleaned and subjected to a drop of acetic acid (0.1N, 30 min., 37° C). Subsequently the acid was removed, the teeth where cleaned and the hardness was measured (Knoop method). The depth of penetration increased 8.82 μm, 5.40 μm, 5.32 μm and 3.77 μm respectively for teeth treated as blanco with 4.2% casein phosphopeptide e-polylysine copolymer, 7.5% phosvitin and with 4.2% bisphosphonylated e-polylysine. The p-values are respectively 0.000, 0.000 and 0.004 for casein phosphopeptide e-polylysine copolymer, bisphosphonylated e-polylysine and phosvitin.
Tooth samples have been cut in horizontal slices (thickness: 0.3 to 1 mm) with a Leitz 1600 tooth cutter with horizontal cutting blade; the slices are cut manually (with a bore) into small tooth samples that contain a small part of the original tooth surface. The tooth sample is positioned in a small plastic tube, that has been cut from a long plastic tube with 6 mm external diameter. The length of the tube is 3 to 6 mm. The inner part of the tube is filled with a polymer that hardens under light (Photoclearfil Bright; Kuraray). The tooth sample is positioned in the soft polymer inside the tube, in such a way that the original tooth surface is just surfacing above the tube. Finally the polymer is hardened with a light source. The tooth surface is polished with Struers silicon carbid paper (800-4000) and the hardness is measured 5 times on each of the samples under the Letiz Wetzlar microscope (weight on needle: 50 p). Tooth samples with a maximum average depth of penetration of 43 μm are retained for use in the oral cavity.
The tooth-samples are fixed to a device that has been described in the chapter “Description of the invention ( chapter: In-vivo experiments)” and the device is positioned in the oral cavity after the lower jaw.
A drop from a solution containing either, e-polylysine, CPP, bisphoshphonylated e-polylysine, casein phosphopeptide epsilon-polylysine copolymer or partially hydrolysed phosvitin has been positioned at the surface of tooth samples for a period of 30 minutes at 37 C.; the drop was removed and the procedure was repeated once more. All solutions contained also 3.1% CaCl2.2H2O and 1.7% KH2PO4 (except for the one containing e-polylysine).
The tooth surface was cleaned with a soft paper towel until it was visibly clean. Four such tooth samples where fixed to the device and located in the oral cavity behind the lower jaw. They resided in the oral cavity for a period of 12 hours (only to be removed during eating). Subsequently, they where removed, cleaned and the tooth surface was treated with a drop of acetic acid (0.1N, 30 min., 37° C.); the acid was removed, the tooth was washed with deionized water and the hardness was evaluated.
A: type of peptide ingredient in the solution (% on a w/w basis versus water). (*): the teeth where submerged (30 min.) in a saliva batch and dried afterwards on air, before they where treated with a solution that contained bisphosphonylated e-polylysine. B: Average initial hardness of the tooth surface; μm (st. dev.) C: Average hardness after treatment, after residing in the oral cavity and treatment with acid D: The average change in hardness (C−B) E: p-value (against blanco) of the Mann-Whitney statistical test F: the number of tooth samples that where treated with a specific formulation; hardness on each of the tooth samples was measured five times and an average value was calculated; most often 4 tooth samples per person; 5 volunteers participated to the experiment; the 132 tooth samples where randomized into groups (of 4 teeth) with the same average hardness value.

[3] = 4.2% w/w solution, 12 hours oral cavity, acetic acid 0.1N 30 min

Substance | inhibitory concentration ([1]; 17 from 31 microaerophilic strains) [mg/mL] | C: Average hardness after treatment, after residing in the oral cavity and treatment with acid [2, 3] | D: average change in hardness (C−B) [2, 3] [μm] | B: Average initial hardness of the tooth surface (st. dev.) ([2]; group for 4.2% solution) | mic value ([1]; 12 strains from 31 microaerophilic strains) [mg/mL] | D: average change in hardness (C−B) ([2]; 4.2% solution (*): teeth submerged 30 min in saliva before treatment) [μm] | C: Average hardness after treatment, after residing in the oral cavity and treatment with acid ([2]; 4.2% solution (*): teeth submerged 30 min in saliva before treatment, 12 hours oral cavity, acid) | B: Average initial hardness of the tooth surface (st. dev.) ([2]; group for 4.2% solution (*)) | D: average change in hardness (C−B) ([2]; 7.8% w/w solution) [μm] | C: Average hardness after treatment, after residing in the oral cavity and treatment with acid ([2]; 7.8% w/w solution, 12 hours oral cavity, acid) | B: Average initial hardness of the tooth surface (st. dev.) ([2]; group for 7.8% solution)
Epsilon-polylysine (elys; e-polylysine) [Product 6] | 0.2 | 47.81 (3.67) μm | 6.93 | 40.88 (0.91) μm |  |  |  |  |  |  | 
bisphosphonylated epsilon-polylysine [bisphosphonylated e-polylysine] |  | 44.29 (2.08) μm | 3.77 | 40.52 (0.62) μm | 0.2 | 3.29 | 44.05 (2.92) μm | 40.76 (0.73) μm |  |  | 
casein phosphopeptide epsilon-polylysine copolymer [(CPP x elys)n] |  | 46.21 (1.94) μm | 5.40 | 40.81 (0.68) μm |  |  |  |  | 2.41 | 42.92 (1.43) μm | 40.51 (1.55) μm
